In data set [1] the test system is primary cell culture of rat cortical neurons. As to the kind of experiment: Morphological evaluation of neurite length (MAP2 staining) in primary cultures. The data set is classed as cell-based. Conditions: for Increase respect to control (culture A): neurite length relative to control culture A; for Increase respect to control (culture A) / Increase of average neurite length: overall concentration 10 μM (culture B: 40 ng mL−1 bFGF), 6 days incubation; for Increase of average neurite length: control culture A 280; for Effect on neurite extension/length (in words): overall concentration 10 μM, compared to control culture A. Here is the method:
Eight primary cellular cultures were prepared as described in Abe K et al. “Effects of recombinant human basic fibroblast growth factor and its modified protein CS23 on survival of primary cultured neurons from various regions of fetal rat brain.”, Jpn J Pharmacol 1990, 53 (2): 221-7. All operations were carried out under sterile conditions.
Neuronal cells were separated from cerebral hemispheres of rat fetuses of 18 days (Japan SLC, Inc.) and suspended in 10% FBS/MEM, then seeded at 9000 cells cm^−2 in poly-L-lysine plates.
After 24 hours, the culture medium was replaced with a serum-free medium, specific for the growth of neurons (Neurobasal Medium) supplemented with B27.
After 6 days incubation, the cells of the eight cultures were fixed with 4% formaldehyde.
The eight cultures were then evaluated regarding the length of neurites at the microscopic level. The neurons were subjected to immunohistochemical staining for the microtubule-associated protein-2 (MAP2) according to the histochemical method for the length of neurites, as described in Fukuyama Y et al. “Neurotrophic activity of honokiol on the cultures of fetal rat cortical neurons” Bioorg. Med Chem. Lett 12, 1163-66 (2002). The length of the most extended neurite of the whole cellular body was measured and calculated by using software programs Lumina Vision and Mac-SCOPE, according to the above-mentioned method described in Y. Fukuyama et al. (2002). The morphometric analyses were performed by measuring the length of the longest neurite from each neuron using Lumina Vision and Mac-Scope software (Yoshiyasu Fukuyama et al. 2002).

Data set [2] relates to symptoms of diabetic polyneuropathy and sciatic pain. Conditions: cited from earlier work.
For data set [3], the system named is cultured rat cortical neurons. Conditions: primary cultures; cited from earlier work.

These results are taken from patent US9642834B2, “Composition comprising alpha-lipoic acid and honokiol for treating neuropathies” (Giellepi S.p.A., priority 2012, dated 2017).

Entries after “also recorded” stand apart in the source; their conditions may differ.

Take `O=C(O)CCCCC1CCSS1` (stereo not drawn) [Culture G, alpha-lipoic acid]: in data set [1], the “Increase respect to control (culture A)” value is 1.01, the “Increase of average neurite length” value is 285 (p = ns) μm and the “Effect on neurite extension/length (in words)” value was “stimulated neurite growth in a negligible way”. Also, in data set [2] (daily doses 600, 1200 and 1800 mg), the “Side effects such as nausea, vomiting and dizziness” value is given as “dose-dependent increase of the side effects”. Further, the “Daily dose providing the best risk/benefit ratio” value in data set [2] (treatment of symptoms of diabetic polyneuropathy and sciatic pain) is reported as 600 mg.
For the compound `C=CCc1ccc(O)c(-c2ccc(O)c(CC=C)c2)c1` [Culture H, honokiol], the “Neurite growth and neuron survival (in words)” value in data set [3] is “able to promote neurite growth; also recorded: capable of increasing the survival and development of neurons”. Also, in data set [1], the “Increase respect to control (culture A)” value was found to be 1.02, the “Increase of average neurite length” value is recorded as 287 (p = ns) μm and the “Effect on neurite extension/length (in words)” value is “stimulated neurite growth in a negligible way”.
Turning to “Culture B: Human recombinant fibroblast growth factors (bFGF), 40 ng mL−1, supplied by Upstate Biotechnology”, in data set [1], the “Increase respect to control (culture A)” value is 1.05 and the “Increase of average neurite length” value is on record as 295 (p = ns) μm.
